By IC50 is commonly meant the concentration at which inhibition is half-maximal. One may read the inhibition as the share of the control response that was lost under treatment. A low value points to a response near the control.

One experiment addresses T1, Prostaglandin E synthase (Homo sapiens, UniProt O14684).
T1 sequence (O14684 whole entry): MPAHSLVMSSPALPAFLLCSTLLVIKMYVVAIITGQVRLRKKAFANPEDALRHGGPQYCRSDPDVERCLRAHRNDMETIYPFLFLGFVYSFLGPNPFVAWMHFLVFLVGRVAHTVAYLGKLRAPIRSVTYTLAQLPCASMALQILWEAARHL
Nature of the experiment: Inhibition of mPGES1 isolated from human A549 cells after 15 mis by RP HPLC analysis. It is filed as cell-free.

Experiment [1] addresses T2, Prostaglandin E synthase (Homo sapiens) (UniProt O14684).
T2 sequence (whole entry): T1 sequence (O14684 whole entry)
In words: Inhibition of mPGES1 isolated from human A549 cells at 10 uM after 15 mis by RP HPLC analysis. The format is cell-free.

Turning to `O=[N+]([O-])c1ccc(OCc2cn(-c3cccc(C(F)(F)F)c3)nn2)c(C(F)(F)F)c1`, at Prostaglandin E synthase, the IC50 was above 30 µM. This molecule also displayed an inhibition in experiment [1] of 20%.
The molecule `N#Cc1ccc(-n2cc(COc3cccc(C(F)(F)F)c3)nn2)cc1C(F)(F)F` yielded an IC50 at Prostaglandin E synthase above 30 µM. Further, in experiment [1], the inhibition turned out to be 20%.
In the same order, the values of `N#Cc1ccc(-n2cc(COc3ccc(C(F)(F)F)cc3)nn2)cc1C(F)(F)F` are above 30 µM and 20%.
In the same order, the values of `N#Cc1ccc(-n2cc(COc3ccc([N+](=O)[O-])cc3C(F)(F)F)nn2)cc1C(F)(F)F` are above 30 µM and 20%.
Consider `N#Cc1ccc(-n2nnc(COc3ccc([N+](=O)[O-])cc3C(F)(F)F)c2I)cc1C(F)(F)F`, for which the IC50 against Prostaglandin E synthase is 0.7 µM.

For the origin of these results see ChEMBL document CHEMBL3621168, “Elucidating new structural features of the triazole scaffold for the development of mPGES-1 inhibitors” (Medchemcomm, 2015).
